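Results reflect a 48-hour exposure of cells in 96-well plates to compound at five concentrations. GI50 = concentration required for 50% inhibition of growth.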 Calls of active or inactive are those of the source. No stated cut-off is given here; in the data, active = GI50 up to about 1.1 µM and inactive = higher.
Key:
Experiment in all cases: NCI-60 cell line screen, 48 h
SR = system: SR
KM12 = system: KM12
Hs-578T = system: Hs-578T
HCT-15 = system: HCT-15
OVCAR-8 = system: OVCAR-8
MOLT-4 = system: MOLT-4
SK-MEL-5 = system: SK-MEL-5
MDA-MB-231 = system: MDA-MB-231
NCI-H23 = system: NCI-H23
U-251 = system: U-251
SK-MEL-28 = system: SK-MEL-28
SNB-75 = system: SNB-75
T47D = system: T47D
SK-OV-3 = system: SK-OV-3
SF-295 = system: SF-295
786-0 = system: 786-0
UACC-257 = system: UACC-257
COLO 205 = system: COLO 205
IGROV-1 = system: IGROV-1
SNB-19 = system: SNB-19

Row | Structure (SMILES) | GI50 (SR) | GI50 (KM12) | GI50 (Hs-578T) | GI50 (HCT-15) | GI50 (OVCAR-8) | GI50 (MOLT-4) | GI50 (SK-MEL-5) | GI50 (MDA-MB-231) | GI50 (NCI-H23) | GI50 (U-251) | GI50 (SK-MEL-28) | GI50 (SNB-75) | GI50 (T47D) | GI50 (SK-OV-3) | GI50 (SF-295) | GI50 (786-0) | GI50 (UACC-257) | GI50 (COLO 205) | GI50 (IGROV-1) | GI50 (SNB-19)
1 | CC(NC(=O)OCc1ccccc1)NC(=O)OC(C)(C)C (configuration not stated) | > 100 µM (inactive) | > 100 µM (inactive) | > 100 µM (inactive) | > 100 µM | > 100 µM (inactive) | 84.9 µM (inactive) | > 100 µM (inactive) | > 100 µM (inactive) | > 100 µM (inactive) | > 100 µM (inactive) | > 100 µM (inactive) | > 100 µM (inactive) | > 100 µM (inactive) | > 100 µM (inactive) | > 100 µM (inactive) | > 100 µM (inactive) | > 100 µM (inactive) | > 100 µM (inactive) | > 100 µM (inactive) | > 100 µM (inactive)
2 | O/N=C1/Nc2cc(Cl)ccc2C(=S)N2CSCC12 (configuration not stated) | > 100 µM (inactive) | > 100 µM (inactive) | > 100 µM (inactive) | > 100 µM | > 100 µM (inactive) | > 100 µM (inactive) | > 100 µM (inactive) | > 100 µM (inactive) |  | > 100 µM (inactive) | > 100 µM (inactive) | > 100 µM (inactive) | > 100 µM (inactive) | > 100 µM (inactive) | > 100 µM (inactive) | > 100 µM (inactive) | > 100 µM (inactive) | > 100 µM (inactive) | > 100 µM (inactive) | > 100 µM (inactive)
3 | CC[C@@]1(OP(=O)(O)O)C(=O)OCc2c1cc1n(c2=O)Cc2cc3ccccc3nc2-1 | 0.00274 µM (active) | 0.398 µM (active) | > 10 µM (inactive) | 0.748 µM | 0.224 µM (active) | 0.014 µM (active) | 0.153 µM (active) | 3.37 µM (inactive) | 0.0608 µM (active) | 0.0603 µM (active) | 1.22 µM (inactive) | 0.16 µM (active) | 0.132 µM (active) | 0.342 µM (active) | 0.0301 µM (active) | 0.0607 µM (active) | 0.287 µM (active) | 0.847 µM (active) | 0.311 µM (active) | 0.0798 µM (active)
4 | Cc1cc2c(cc1C)[n+]([O-])c(C(=O)/C=C/c1ccc3c(c1)OCO3)c(C)[n+]2[O-] | > 100 µM (inactive) | > 100 µM (inactive) | 26.2 µM (inactive) | > 100 µM | > 100 µM (inactive) | > 100 µM (inactive) | > 100 µM (inactive) | > 48.9 µM (inactive) | 38.3 µM (inactive) | 25.4 µM (inactive) | > 100 µM (inactive) | 19.7 µM (inactive) | > 86.1 µM (inactive) | 19.8 µM (inactive) | 21.1 µM (inactive) | 36.6 µM (inactive) | > 88.7 µM (inactive) | > 100 µM (inactive) | 48.4 µM (inactive) | 27.5 µM (inactive)
5 | C/C(=N\NC(=S)Nc1ccc([N+](=O)[O-])cc1)c1nc2cccnc2[nH]1 | 0.388 µM (active) | 0.873 µM (active) | 1.27 µM (inactive) | 0.617 µM | 0.348 µM (active) | 0.377 µM (active) | 0.991 µM (active) | 1.31 µM (inactive) | 0.713 µM (active) | 0.251 µM (active) | 0.698 µM (active) | 1.38 µM (inactive) | 0.693 µM (active) | 1.16 µM (inactive) | 0.352 µM (active) | 0.748 µM (active) | 0.565 µM (active) | 2.44 µM (inactive) | 0.942 µM (active) | 0.824 µM (active)
6 | C=C(C)C(CC=C(C)C)CC12CC(CC=C(C)C)C(C)(C)C(CC=C(C)C)(C(=O)C(Cc3ccc(O)c(O)c3)=C1O)C2=O (configuration not stated) | > 100 µM (inactive) | > 100 µM (inactive) | > 100 µM (inactive) | > 100 µM | > 100 µM (inactive) | 50.6 µM (inactive) | > 100 µM (inactive) | > 100 µM (inactive) | > 100 µM (inactive) | > 100 µM (inactive) | > 100 µM (inactive) | > 100 µM (inactive) | > 100 µM (inactive) | > 100 µM (inactive) | > 100 µM (inactive) | > 100 µM (inactive) | > 100 µM (inactive) | > 100 µM (inactive) | > 100 µM (inactive) | > 100 µM (inactive)
7 | O=C(CC(=O)N1N=C(N(c2ccccc2)c2ccccc2)CC1c1ccccc1)Nc1ccccc1 (configuration not stated) | 37.7 µM (inactive) | > 100 µM (inactive) | 42.5 µM (inactive) | > 100 µM | > 100 µM (inactive) | 7.31 µM (inactive) | > 100 µM (inactive) | 7.82 µM (inactive) | > 100 µM (inactive) | 56.6 µM (inactive) | > 100 µM (inactive) | 61.4 µM (inactive) | > 100 µM (inactive) | 80.9 µM (inactive) | 66.7 µM (inactive) | 81.7 µM (inactive) | > 100 µM (inactive) | > 100 µM (inactive) | > 100 µM (inactive) | 78 µM (inactive)
8 | CC(C)[Si](OC1=CCC[C@H]2NC(=O)[C@@H](Cc3ccccc3)[C@@]12C)(C(C)C)C(C)C | 2.62 µM (inactive) | 3.84 µM (inactive) | 4.67 µM (inactive) | 4.09 µM | 11.4 µM (inactive) | 3.89 µM (inactive) | 3.37 µM (inactive) | 12.6 µM (inactive) | 4.98 µM (inactive) | 3.62 µM (inactive) | 4.11 µM (inactive) | 15.4 µM (inactive) | 2.79 µM (inactive) | 5.93 µM (inactive) | 4.85 µM (inactive) | 3.94 µM (inactive) | 4.54 µM (inactive) | 2.33 µM (inactive) | 10.9 µM (inactive) | 10 µM (inactive)
9 | CC(=O)Nc1c(S(=O)(=O)c2ccccc2)c(C)c(C)n1Cc1ccccc1 | > 10 µM (inactive) | 49.2 µM (inactive) | > 100 µM (inactive) | > 100 µM | > 100 µM (inactive) | > 100 µM (inactive) | 83.8 µM (inactive) | > 100 µM (inactive) | > 100 µM (inactive) | > 100 µM (inactive) | > 100 µM (inactive) | > 100 µM (inactive) | > 10 µM (inactive) | > 100 µM (inactive) | > 100 µM (inactive) | > 100 µM (inactive) | > 100 µM (inactive) | > 100 µM (inactive) | > 100 µM (inactive) | > 100 µM (inactive)
10 | CC(C)OC(=O)[C@H]1ON2O[C@H](O[C@@H]3CCCC[C@H]3c3ccccc3)C([Si](C)(C)c3ccccc3)[C@H]3OC(=O)[C@@H]1C32 (some centres not stated) | 21.2 µM (inactive) | > 100 µM (inactive) | > 100 µM (inactive) | > 100 µM | > 100 µM (inactive) | 18.7 µM (inactive) | > 100 µM (inactive) | > 100 µM (inactive) | > 100 µM (inactive) | > 100 µM (inactive) | > 100 µM (inactive) | > 100 µM (inactive) | 87.5 µM (inactive) | > 100 µM (inactive) | > 100 µM (inactive) | > 100 µM (inactive) | > 100 µM (inactive) | > 100 µM (inactive) | > 100 µM (inactive) | > 100 µM (inactive)
11 | COC(=O)NNC(=O)OC.COC(=O)Nc1ccccc1NC(=O)OC.COC(=O)Oc1nn(C(=O)OC)c(=O)c2ccccc12 | > 100 µM (inactive) | > 100 µM (inactive) | > 100 µM (inactive) | > 100 µM | > 100 µM (inactive) | > 100 µM (inactive) | > 100 µM (inactive) | > 100 µM (inactive) | > 100 µM (inactive) | > 100 µM (inactive) | > 100 µM (inactive) | > 100 µM (inactive) | > 100 µM (inactive) | > 100 µM (inactive) | > 100 µM (inactive) | > 100 µM (inactive) | > 100 µM (inactive) | > 100 µM (inactive) | > 100 µM (inactive) | > 100 µM (inactive)
12 | O=C1OCC2=Nc3cccc4cccc(c34)N12 | > 100 µM (inactive) | > 100 µM (inactive) | > 100 µM (inactive) | > 100 µM | > 100 µM (inactive) | > 100 µM (inactive) | > 100 µM (inactive) | > 100 µM (inactive) | > 100 µM (inactive) | > 100 µM (inactive) | > 100 µM (inactive) | > 100 µM (inactive) | > 100 µM (inactive) | > 100 µM (inactive) | > 100 µM (inactive) | > 100 µM (inactive) | > 100 µM (inactive) | > 100 µM (inactive) | > 100 µM (inactive) | > 100 µM (inactive)
13 | NC(=O)C1=NNc2ccccc2C(=O)N1c1ccccc1 | > 100 µM (inactive) | > 100 µM (inactive) | > 100 µM (inactive) | > 100 µM | > 100 µM (inactive) | > 100 µM (inactive) | > 100 µM (inactive) | > 100 µM (inactive) |  | > 100 µM (inactive) | > 100 µM (inactive) | 14.5 µM (inactive) | > 100 µM (inactive) | > 100 µM (inactive) | > 100 µM (inactive) | > 100 µM (inactive) | > 100 µM (inactive) | > 100 µM (inactive) | > 100 µM (inactive) | > 100 µM (inactive)
14 | O=C(O)Cc1ccc(/N=N/c2c(O)c(C(=O)O)cc3ccccc23)cc1 | > 100 µM (inactive) | > 100 µM (inactive) | > 100 µM (inactive) | > 100 µM | > 100 µM (inactive) | > 100 µM (inactive) | 71.8 µM (inactive) | > 100 µM (inactive) |  | > 100 µM (inactive) | > 100 µM (inactive) | > 100 µM (inactive) | > 100 µM (inactive) | > 100 µM (inactive) | > 100 µM (inactive) | > 100 µM (inactive) | > 100 µM (inactive) | > 100 µM (inactive) | > 100 µM (inactive) | > 100 µM (inactive)
